For orientation: melting point means the temperature of the solid-liquid transition. In the case of `COc1ccc(-c2ccc(=O)n(Cc3ccccc3C)c2)cc1` [4-05], the melting point was found to be 122 °C.
As to `COc1ccc(-c2ccc(=O)n(Cc3ccc(C)cc3)c2)cc1` [4-06], the melting point was 123 to 124 °C.
The figure for `COc1ccc(-c2ccc(=O)n(Cc3ccc(C(F)(F)F)cc3)c2)cc1` [4-07] is 131 to 132 °C; for `COc1ccc(-c2ccc(=O)n(Cc3cccc(F)c3)c2)cc1` [4-09] it is 89 °C; for `COc1ccc(-c2ccc(=O)n(Cc3ccc(F)cc3)c2)cc1` [4-10] it is 103 °C.
Turning to `COc1ccc(-c2ccc(=O)n(Cc3ccc(F)cc3F)c2)cc1` [4-12], the melting point came to 109 °C.
The molecule `COc1ccc(-c2ccc(=O)n(Cc3cccc(F)c3F)c2)cc1` [4-13] came in with a melting point of 71 °C.
`COc1ccc(-c2ccc(=O)n(Cc3c(F)cc(F)cc3F)c2)cc1` [4-17] yielded a melting point of 112 °C.
The figure for `COc1ccc(-c2ccc(=O)n(Cc3ccccc3Cl)c2)cc1` [4-18] is 125 °C; for `COc1ccc(Cn2cc(-c3ccc(OC)cc3)ccc2=O)cc1` [4-23] it is 103 °C; for `COCc1ccc(Cn2cc(-c3ccc(OC)cc3)ccc2=O)cc1` [4-25, 1-(4-(Methoxymethyl)benzyl)-5-(4-methoxyphenyl)pyridin-2(1H)-one] it is 72 °C.
The figure for `COC(=O)c1ccc(Cn2cc(-c3ccc(OC)cc3)ccc2=O)cc1` [4-27] is 147 to 150 °C; for `COc1ccc(-c2ccc(=O)n(Cc3cccc(C#N)c3)c2)cc1` [4-29] it is 165 °C; for `COc1ccc(-c2ccc(=O)n(Cc3ccc(C#N)cc3)c2)cc1` [4-30] it is 119 to 120 °C.
`COc1ccc(-c2ccc(=O)n(Cc3ccc(OC(F)(F)F)cc3)c2)cc1` [4-31] yielded a melting point of 130 °C.
`COc1ccc(-c2ccc(=O)n(Cc3ccc([N+](=O)[O-])cc3)c2)cc1` [4-33] returned a melting point of 95 °C.
The value for `COc1ccc(-c2ccc(=O)n(Cc3ccc(C(F)(F)F)cc3F)c2)cc1` [4-34] was 131 to 134 °C.
The molecule `COc1ccc(-c2ccc(=O)n(Cc3ccc(C(F)(F)F)c(F)c3)c2)cc1` [4-35] registered a melting point of 82 to 84 °C.
For `COc1ccc(-c2ccc(=O)n(Cc3ccc(C)c(F)c3)c2)cc1` [4-36], the melting point lay within 98 to 100 °C.
Molecule `COc1ccc(-c2ccc(=O)n(Cc3ccc4ccccc4c3)c2)cc1` [4-38] showed a melting point of 145 to 148 °C.
In turn, `COc1ccc(-c2ccc(=O)n(Cc3ccc(C(F)(F)F)o3)c2)cc1` [4-39] came in with a melting point of 120 °C.
The value for `COc1ccc(-c2ccc(=O)n(Cc3cc(C)on3)c2)cc1` [4-40] was 100 to 102 °C; that for `COc1ccc(-c2ccc(=O)n(Cc3noc(-c4ccccc4)n3)c2)cc1` [4-41] was 104 °C.
The value for `COc1ccc(-c2ccc(=O)n(Cc3nc(-c4ccc(F)cc4)no3)c2)cc1` [4-42, 1-((3-(4-Fluorophenyl)-1,2,4-oxadiazol-5-yl)methyl)-5-(4-methoxyphenyl)pyridin-2(1H)-one] was 123 °C; that for `COc1ccc(-c2ccc(=O)n(Cc3ccc(Cl)nc3)c2)cc1` [4-44] was 135 °C.
`CCc1ccc(Cn2cc(-c3ccc(OC)cc3)ccc2=O)cn1` [4-45, 1-((6-Ethylpyridin-3-yl)methyl)-5-(4-methoxyphenyl)pyridin-2(1H)-one] had a melting point of 130 °C.
The molecule `COc1ccc(-c2ccc(=O)n(Cc3nc4cc(F)ccc4o3)c2)cc1` [4-51, 1-((5-Fluorobenzo[d]oxazol-2-yl)methyl)-5-(4-methoxyphenyl)-pyridin-2(1H)-one] gave a melting point of 115 °C.
In the case of `COc1ccc(-c2ccc(=O)n(Cc3cnc(C)s3)c2)cc1` [4-52], the melting point was in the range of 127 to 130 °C.
The value for `COc1ccc(-c2ccc(=O)n(Cc3nc4ccccc4s3)c2)cc1` [4-53] was 121 °C; that for `COc1ccc(-c2ccc(=O)n(Cc3nc4c(F)cccc4s3)c2)cc1` [4-54] was 126 °C; that for `Cc1ccc(-c2ccc(=O)n(Cc3cccc(F)c3)c2)cc1` [6-04] was 112 to 113 °C.
The value for `COCc1ccc(-c2ccc(=O)n(Cc3ccc(F)c(F)c3)c2)cc1` [6-11] was 85 °C.
The figure for `CC(=O)c1ccc(-c2ccc(=O)n(Cc3ccc(F)c(F)c3)c2)cc1` [6-12] is 142 °C; for `N#Cc1ccc(-c2ccc(=O)n(Cc3ccc(F)c(F)c3)c2)cc1` [6-13] it is 139 °C; for `O=c1ccc(-c2cccs2)cn1Cc1ccc(F)c(F)c1` [6-15] it is 96 °C.
As to `O=c1ccc(-c2ccc3c(c2)CCO3)cn1Cc1ccc(F)c(F)c1` [6-17], the melting point was 99 °C.
`O=c1ccc(-c2ccc3c(c2)OCO3)cn1Cc1ccc(F)c(F)c1` [6-18]: the melting point stood at 181 °C.
`O=c1ccc(-c2nc3ccccc3s2)cn1Cc1ccc(Cl)c(F)c1` [6-19, 1-(4-Chloro-3-fluorobenzyl)-5-(benzo[d]thiazol-2-yl)pyridin-2(1H)-one]: the melting point was determined as 164 °C.
As for `O=c1ccc(Br)cn1Cc1ccc(Cl)cc1F` [6-20], the melting point worked out at 102 °C.
With `O=c1ccc(-c2ccc(O)cc2)cn1Cc1ccc(Cl)cc1F` [6-21], the melting point was 224 °C.
The value for `Nc1cccc(-c2ccc(=O)n(Cc3ccc(Cl)cc3F)c2)c1` [6-22] was 70 °C.
The figure for `NCc1ccc(-c2ccc(=O)n(Cc3ccc(Cl)cc3F)c2)cc1` [6-24] is 139 °C; for `N#Cc1cccc(-c2ccc(=O)n(Cc3ccc(Cl)cc3F)c2)c1` [6-25] it is 140 °C.
`O=c1ccc(-c2ccc(CO)cc2)cn1Cc1ccc(Cl)cc1F` [6-26] displayed a melting point of 176 °C.
Turning to `O=c1ccc(-c2ccc(C(F)(F)F)cc2)cn1Cc1ccc(Cl)cc1F` [6-27], the melting point was 127 °C.
The molecule `COc1ccc(-c2ccc(=O)n(Cc3ccc(Cl)cc3F)c2)cc1C` [6-28] displayed a melting point of 104 °C.
Regarding `COc1ccc(-c2ccc(=O)n(Cc3ccc(Cl)cc3F)c2)cc1OC` [6-31], the melting point is 141 °C.
For the molecule `CCCOc1ccc(-c2ccc(=O)n(Cc3ccc(Cl)cc3F)c2)cc1` [6-32], the melting point came to 107 °C.
The figure for `CC(C)COc1ccc(-c2ccc(=O)n(Cc3ccc(Cl)cc3F)c2)cc1` [6-33] is 88 °C; for `COCCOc1ccc(-c2ccc(=O)n(Cc3ccc(Cl)cc3F)c2)cc1` [6-36] it is 90 °C.
`O=c1ccc(-c2ccc(OCc3ccco3)cc2)cn1Cc1ccc(Cl)cc1F` [6-37] came in with a melting point of 114 °C.
On to `COC(=O)Oc1ccc(-c2ccc(=O)n(Cc3ccc(Cl)cc3F)c2)cc1` [6-39, 4-(1-(4-Chloro-2-fluorobenzyl)-6-oxo-1,6-dihydropyridin-3-yl)phenyl methyl carbonate], for which the melting point amounted to 124 °C.
The molecule `CC(=O)COc1ccc(-c2ccc(=O)n(Cc3ccc(Cl)cc3F)c2)cc1` [6-40, 1-(4-Chloro-2-fluorobenzyl)-5-(4-(2-oxopropoxy)phenyl)pyridin-2(1H)-one] had a melting point of 127 °C.
As for `COC(=O)COc1ccc(-c2ccc(=O)n(Cc3ccc(Cl)cc3F)c2)cc1` [6-41], the melting point came out at 119 °C.
In turn, `NCCOc1ccc(-c2ccc(=O)n(Cc3ccc(Cl)cc3F)c2)cc1` [6-42] gave a melting point of 226 °C.
The molecule `NCCCOc1ccc(-c2ccc(=O)n(Cc3ccc(Cl)cc3F)c2)cc1` [6-43] gave a melting point of 253 °C.
The value for `CN(C)CCOc1ccc(-c2ccc(=O)n(Cc3ccc(Cl)cc3F)c2)cc1` [6-44] was 85 °C; that for `CN(C)CCCOc1ccc(-c2ccc(=O)n(Cc3ccc(Cl)cc3F)c2)cc1` [6-45] was 104 °C; that for `N#CCOc1ccc(-c2ccc(=O)n(Cc3ccc(Cl)cc3F)c2)cc1` [6-46, 2-(4-(1-(4-Chloro-2-fluorobenzyl)-6-oxo-1,6-dihydropyridin-3-yl)-phenoxy)acetonitrile] was 160 °C.
For the molecule `O=c1ccc(-c2ccc(OCCCN3CCOCC3)cc2)cn1Cc1ccc(Cl)cc1F` [6-48], the melting point is 153 °C.
For the molecule `COc1ccc(-c2ccc(=O)n(Cc3ccc(Cl)cc3F)c2)cn1` [6-51, 1-(4-Chloro-2-fluorobenzyl)-5-(6-methoxypyridin-3-yl)pyridin-2(1H)-one], the melting point was 136 °C.
The value for `CNC(=O)COc1ccc(-c2ccc(=O)n(Cc3ccc(Cl)cc3F)c2)cc1` [6-52] was 162 °C; that for `CC(=O)NCCOc1ccc(-c2ccc(=O)n(Cc3ccc(Cl)cc3F)c2)cc1` [6-53, N-(2-(4-(1-(4-Chloro-2-fluorobenzyl)-6-oxo-1,6-dihydropyridin-3-yl)phenoxy)ethyl)acetamide] was 153 °C.
Take `CC(=O)N(CCOc1ccc(-c2ccc(=O)n(Cc3ccc(Cl)cc3F)c2)cc1)C(C)=O` [6-55]: the melting point amounted to 121 °C.
The molecule `CC(=O)N(CCCOc1ccc(-c2ccc(=O)n(Cc3ccc(Cl)cc3F)c2)cc1)C(C)=O` [6-56] had a melting point of 131 °C.
For `CC(=O)Nc1cccc(-c2ccc(=O)n(Cc3ccc(Cl)cc3F)c2)c1` [6-57], the melting point amounted to 194 °C.
As for `CC(=O)Nc1ccc(-c2ccc(=O)n(Cc3ccc(Cl)cc3F)c2)cc1` [6-58], the melting point worked out at 230 °C.
The molecule `CC(=O)NCc1cccc(-c2ccc(=O)n(Cc3ccc(Cl)cc3F)c2)c1` [6-60] displayed a melting point of 143 °C.
For the molecule `CC(=O)NCc1ccc(-c2ccc(=O)n(Cc3ccc(Cl)cc3F)c2)cc1` [6-61], the melting point was 150 °C.
For `O=C1CCCN1CCOc1ccc(-c2ccc(=O)n(Cc3ccc(Cl)cc3F)c2)cc1` [6-62], the melting point turned out to be 180 °C.
The value for `Cc1cc(COc2ccc(-c3ccc(=O)n(Cc4ccc(Cl)cc4F)c3)cc2)no1` [6-63] was 135 °C; that for `Cc1nc(COc2ccc(-c3ccc(=O)n(Cc4ccc(Cl)cc4F)c3)cc2)cs1` [6-66] was 90 °C; that for `O=c1ccc(-c2cccc(-c3nn[nH]n3)c2)cn1Cc1ccc(Cl)cc1F` [6-67] was 240 °C.
`O=c1ccc(-c2ccc(-c3nnn[nH]3)cc2)cn1Cc1ccc(Cl)cc1F` [6-68] had a melting point of 241 °C.

The values above are taken from patent US8399493B2, “Pyridinone derivatives and their use as positive allosteric modulators of mGluR2-receptors” (Janssen Pharmaceuticals, Inc., priority 2004, dated 2013).
